Patent publication US5997843A, “Radiometal complexes that localise in hypoxic tissue” (priority 1993, dated 1999)
“Also recorded” adds a separate entry of the source. Where two headings read alike, the source gives them in different places.

How the values were obtained:
[1] = tested on: isolated (Langendorff) rat hearts; test: Isolated perfused heart (Langendorff), hypoxic vs oxic uptake/retention; settings: for Hypoxic/Oxic Ratio (H/O): ^99m Tc complex (or ^123 I-IAZA), 20 min infusion, 15 min washout; for Normalised Hypoxic Retention: relative to ^3 H-misonidazole activity; for normalised hypoxic retention, times greater than ^3 H misonidazole: isolated buffer perfused rat heart model
Procedure: A 15-minute cold buffer washout period follows. y activity in the heart is monitored using a collimated NaI probe detector positioned over the heart.
Activity in hearts, relative to perfusate activity, is calculated for each nuclide and data evaluated for each compound for activity in hypoxic and oxic hearts (hypoxic:oxic ratio) and also relative to the 3 H-misonidazole activity (normalised retention) using Formula 1. [formula] Results

[2] = rat, cited from earlier work
[3] = tested on: xanthine oxidase; settings: ^99 Tc complex; cited from earlier work
[4] = Biodistribution in rats; type: in vivo, male rats; settings: i.v.
Procedure: Biodistribution in Rats--Methods
The quantitative biodistribution was studied in male rats at 2 minutes, 1 hour and 4 hours post-injection
Rats under light anaesthesia were injected intravenously with 0.1 ml of test agent. Three rats were sacrificed (anaesthesia followed by exsanguination) at 2, 60 and 240 minutes, post-injection. The percentage of the injected dose in the excreta and organs and tissues was determined by dissection and assay for radioactivity in an automatic gamma counter.

[5] = tested on: xanthine oxidase; test: Xanthine oxidase (XOD) with hypoxanthine in PBS reduction test; type: biochemical; settings: ^99m Tc complex, HPLC
Procedure: b) Xanthine Oxidase (XOD) with Hypoxanthine in Phosphate Buffered Saline (PBS)
Xanthine oxidase (16 mg) was weighed into a P6 vial. the vial was capped, oversealed and purged with nitrogen gas. Nitrogen purged phosphate buffered saline (1 ml) was added to the vial containing the xanthine oxidase.
Hypoxanthine (4.1 mg) was weighed into a P6 vial. The vial was capped, oversealed and purged with nitrogen gas. To the hypoxanthine was added (1 ml) of the xanthine oxidase in PBS.
1 ml of the ligand solution or 1 ml of the ^99m Tc-complex preparation was then added to the reducing mixture, shaken, and aliquots were taken at 20 minute time intervals.

[6] = 2 min post-injection, ^99m Tc complex
[7] = 240 min post-injection (third printed value)
[8] = second of two values, 60 or 240 min not assignable

Row | SMILES | Hypoxic/Oxic Ratio (H/O) [1] | Normalised Hypoxic Retention [1] | Bladder/Urine ([4]; 2 min post-injection) [percent injected dose] | Blood ([4]; 2 min post-injection) [percent injected dose] | Gut ([4]; 2 min post-injection) [percent injected dose] | Kidney ([4]; 2 min post-injection) [percent injected dose] | Liver ([4]; 2 min post-injection) [percent injected dose] | Muscle [4, 6] [percent injected dose] | Gut ([4]; 60 min post-injection) [percent injected dose] | Muscle ([4]; 60 min post-injection) [percent injected dose] | Muscle [4, 7] [percent injected dose] | Gut ([4]; 240 min post-injection) [percent injected dose] | Blood [4, 8] [percent injected dose] | Kidney [4, 8] [percent injected dose] | Liver [4, 8] [percent injected dose] | Xanthine oxidase reduction test result [5] | hypoxia selectivity / hypoxic/oxic ratio / hypoxic retention (in words) [1] | normalised hypoxic retention, times greater than ^3 H misonidazole [1] | other results
1 | CC(=NO)C(C)(C)NCCCNC(C)(C)C(C)=NO [Compound X, reference compound] | 5.1 | 0.50 | 0.1 | 5.0 | 11.7 | 1.8 | 27.9 | 34.9 | 51.5 | 7.9 | 2.6 | 53.4 | 6.8 | 2.1 | 13.1 | positive | – | – | brain uptake ([2]; in vivo, 0.5 min): 1.3 % injected dose; reduction by xanthine oxidase [3]: not reduced; Xanthine oxidase reduction test result ([5]; listed as PnAO): reduced by xanthine oxidase
2 | CC(=NO)C(C)(C)NCCCNC(C)(C)C(Cn1ccnc1[N+](=O)[O-])=NO [Compound V, 3,3,9,9-Tetramethyl-1-(2-nitro-1H-imidazo-1-yl)-4,8-diazaundecane-2,10-dione dioxime, reference compound] | 10 | 8.4 | 0.3 | 7.2 | 11.1 | 4.1 | 25.1 | 29.6 | 45.9 | 4.2 | 2.4 | 59.3 | 4.2 | 3.2 | 21.5 | positive | – | – | –
3 | CC(=NO)C(C)(C)NCCCCNC(C)(C)C(Cn1ccnc1[N+](=O)[O-])=NO [Compound II] | 28 | 5.1 | 1.0 | 8.4 | 13.4 | 13.1 | 15.5 | 26.1 | 40.0 | 6.6 | 3.1 | 49.9 | 1.3 | 1.4 | 11.4 | positive | significantly greater than seen for other ^99m Tc test agents and ^123 I-IAZA; also recorded: greater than that for ^99m Tc-PnAO; also recorded: at least equivalent to ^123 I-IAZA | at least 2 times | –
4 | CC(=NO)C(C)(C)NCCCCCNC(C)(C)C(Cn1ccnc1[N+](=O)[O-])=NO [Compound IV, 3,3,11,11-tetramethyl-1-(2-nitro-1H-imidazo-1-yl)-4,10-diazatridecan-2,12-dione dioxime] | 2.4 | 0.49 | 0.4 | 10.6 | 13.7 | 12.1 | 15.6 | 24.3 | 50.9 | 8.2 | 2.0 | 60.0 | 1.0 | 2.7 | 2.5 | positive | very little hypoxia selectivity | – | –
5 | CC(=NO)C(C)(C)NCCCCNC(C)(C)C(C)=NO [Compound I, 4,9-diaza-3,3,10,10-tetramethyldodecan-2,11',-dione dioxime] | 54 | 2.2 | 0.6 | 9.7 | 11.2 | 7.5 | 10.6 | 35.2 | 22.3 | 12.5 | 3.5 | 24.4 | 2.4 | 5.6 | 9.1 | positive | significantly greater than seen for other ^99m Tc test agents and ^123 I-IAZA; also recorded: greater than that for ^99m Tc-PnAO; also recorded: at least equivalent to ^123 I-IAZA; also recorded: significantly greater hypoxic cell selectivity than the corresponding nitroimidazole conjugate | at least 2 times | brain uptake ([2]; 30 sec pi, ^99m Tc complex): 0.12 % injected dose
